Test results as given in patent US20230355678A1, “METHODS FOR IMPROVING T CELL EFFICACY” (IMMATICS US, INC., priority 2022, published 2023).
“Also recorded” adds a separate entry of the source. Read-outs that look alike come from different tables or passages of the source.

Key:
[1] = tested on: transduced T cells; assay: Exhaustion / inhibitory receptor (ICI) marker expression of T cell products; format: cell-based
Experimental: The sustained expression of multiple inhibitory receptors may be the hallmark of exhausted T cells. Common to both CD4+ and CD8+ exhausted T cells may be the surface expression of multiple inhibitory receptors, e.g., 2B4, 4-1BB, CD39, CD69, LAG3, PD-1, TIGIT, and TIM3. Expression of these inhibitory receptors in T cell products prepared by Panobinostat treatment at different time was determined. […] Panobinostat treatment on Day 0 increased % PD-1+ cells in T cell products as compared with other treatments and control.
CD39 may be considered as a marker for exhausted T cells, e.g., CD8+ T cells, in cancer. CD69 is a membrane-bound, type II C-lectin receptor and may be considered as an early marker of lymphocyte activation due to its rapid appearance on the surface of the plasma membrane after stimulation. […] Dasatinib may have little effect on % of terminally differentiated CD39-positive state (CD39+CD69+) and % of CD69+ state in T cell products.
Common to both CD4+ and CD8+ exhausted T cells may be the surface expression of multiple inhibitory receptors including 2B4, 4-1BB, CD39, CD69, LAG3, PD-1, TIGIT, and TIM-3.

[2] = tested on: transduced T cells; assay: Fold expansion and manufacturing metrics of T cell products; format: cell-based; set-up: fold expansion: unit of the concentration uncertain; settings: for fold expansion of T cell products: vs untreated control; for fold expansion: FIG. 2B
Experimental: (§1) (DMSO low concentration=low volume=0.00001%; vehicle control for Panobinostat at low concentration (1 nM); DMSO high concentration=high volume=1.5%; vehicle control for valproic acid at high concentration (1.5 mM); all except Na butyrate (water) were dissolved in DMSO)
(§2) On Day 1, the activated CD4/CD8-selected cells were transduced with Lentiviral vectors expressing a target-specific exogenous TCR. On Day 2, the culture media were removed and the transduced cells were fed with fresh media in the absence of Panobinostat, SAHA+IL-21, and AKTi VIII and in the presence of cytokines, for cell expansion. On Day 7-Day 10, cells were harvested and cryopreserved for harvest metrics, phenotypic analysis, and functional studies including Incucyte tumor serial killing assay, cytokine production, and exhaustion analysis. To test the effects of TKi, e.g., dasatinib, on T cell products, dasatinib was added on Day 2 (5 nM) and Day 5 (10 nM) during feeding and expansion.
(§3) On Day 0, thawed and rested CD4/CD8-selected cells were activated in the presence of anti-CD3/anti-CD28 antibodies. On Day 1, the activated CD4/CD8-selected cells were transduced with Lentiviral vectors expressing a target-specific exogenous TCR and exogenous CD8 molecules. On Day 2, the culture media were removed and the transduced cells were fed with fresh media containing cytokines for cell expansion. Dasatinib was added on Day 2 or on Day 5. On Day 7-Day 10, cells were harvested and cryopreserved for harvest metrics, phenotypic analysis, and functional studies including Incucyte tumor serial killing assay, cytokine production, and exhaustion analysis.

[3] = tested on: transduced T cells; assay: Transduction efficiency by flow cytometry gated on CD3+CD8+ TCR+ cells; format: cell-based; set-up: % CD8+ T cells / % CD8+ TCR+ cells (transduction efficiency): unit of the concentration uncertain; settings: for % CD8+ TCR+ T cells (transduction efficiency) / total number of T cell products with CD8+ TCR+ T cells: vs untreated control; for % CD8+ T cells / % CD8+ TCR+ cells (transduction efficiency): FIG. 3
Experimental: Transduction efficiency of transduced T cells treated with different HDACi were determined by flow cytometry gated on CD3+CD8+ TCR+ cells.
as §2, §3

[4] = tested on: transduced T cells; assay: Memory T cell phenotype by flow cytometry; format: cell-based; settings: for Ranking of T cell products from the most Tnaive and the least TemRA to the least Tnaive and the most TemRA: comparative study, FIG. 25A-B; for CD28+CD62L+ cells (Tcm-like cells): FIG. 5; for % Tnaïve cells / TemRA cells: vs other treatments and control (no HDACi), FIG. 4
Experimental: Phenotypes of transduced T cells treated with different HDACi were determined by flow cytometry gated on CD3+CD8+ TCR+ cells. […] No major difference in immune-checkpoint-inhibitor (ICI) marker expression was observed.
Using Panobinostat as example, phenotypes of T cell products prepared by Panobinostat treatment on Day 0 (activation), Day 1 (transduction), or Day 2 (feeding) were determined.
as §2, §3

[5] = tested on: UACC257; assay: Tumor cell killing by T cell products (Incucyte tumor serial killing assay); format: cell-based
From the text: as §2
T cell products prepared by activating T cells obtained from three patients (n=3) in the presence of Panobinostat, SAHA+IL-21, or AKTi VIII were compared with regards to tumor killing activity when contacting target cells, e.g., UACC257, which express a report gene encoding red florescent protein (RFP), with E:T=3:1. TCR-positive cells were normalized.
(n=3 healthy donors; TCR normalized T cells:UACC257-iRFP=3:1).

[6] = tested on: transduced T cells; assay: Response to Ag exposure (cytokine expression, exhaustion); format: cell-based; settings: Acceptable range ≥Control; Table 5 summary grade
From the text: as §2

[7] = tested on: transduced T cells; assay: Viability of T cell products; set-up: viability of transduced T cells: dose or concentration left out as unconfirmed; settings: for viability of transduced T cells: Day 7, vs controls (no HDACi and DMSO), FIG. 2A
Experimental: as §1

[8] = dasatinib (10 nM) on Day 2 or Day 5, vs untreated control, FIG. 23C
[9] = dasatinib (5 nM) on Day 2 compared with dasatinib (10 nM) on Day 5, FIG. 25A
[10] = dasatinib (10 nM) on Day 2 or Day 5, FIG. 23B
[11] = dasatinib added Day 2 (5 nM) and Day 5 (10 nM) during feeding and expansion, vs untreated control, FIG. 25A

Compound: 3-[1-[[4-(7-phenyl-3H-imidazo[4, 5g]quinoxalin-6-yl)phenyl]methyl]piperidin-4-yl]-1H-benzimidazol-2-one [AKTi VIII]
- Exhaustion phenotype ([1]; Acceptable range ≤% of exhausted cells to control, Table 5 summary grade): =
- fold expansion of T cell products ([2]; AKTi VIII 250 nM added Day 0 during activation, FIG. 19A, 24A): little effect
- manufacturing metrics and phenotype ([2]; AKTi-treated cells compared with Panobinostat and SAHA+IL-21 treated cells): relatively better
- % CD8+ TCR+ T cells (transduction efficiency) ([3]; AKTi VIII 250 nM added Day 0 during activation, FIG. 19B, 24B): higher
- % of Tcm (CD45RA−CCR7+), Teff (CD45−CCD7−), and TemRA (CD45RA+CCR7-) ([4]; AKTi VIII 250 nM added Day 0 during activation, FIG. 20A): little effect
- total number of Tnaive (CD45RA+CCR7+) in T cell products ([4]; AKTi VIII 250 nM added Day 0 during activation, vs Panobinostat, SAHA+IL-21 and untreated control, FIG. 20B, 25B): best total number; also recorded: increased
- % Tnaive (CD45RA+CCR7+) in T cell products ([4]; AKTi VIII 250 nM added Day 0 during activation, vs untreated control, FIG. 20A, 25A): increased
- expression of Tnaive and Tcm markers (CD27, CD28, CD62L) ([4]; AKTi VIII 250 nM added Day 0 during activation, vs untreated control, FIG. 20C): little effect
- % TemRA in T cell products ([4]; AKTi VIII 250 nM added Day 0 during activation, vs untreated control, FIG. 25A): decreased
- Memory Phenotype ([4]; Acceptable range: Higher % of Tscm, Tcm, lower % of TemRA, improvements in other memory markers (CD62L, CD28, CD27), Table 5 summary grade): +/=
- Ranking of T cell products from the most Tnaive and the least TemRA to the least Tnaive and the most TemRA [4]: dasatinib (5 nM) on Day 2 >dasatinib (10 nM) on Day 5 >AKTi VIII >Panobinostat
- tumor killing activity ([5]; AKTi VIII 250 nM added Day 0 during activation, UACC257-RFP, E:T=3:1, n=3 patients, vs Panobinostat and controls, FIG. 21A): better tumor killing activity
- tumor killing activity ([5]; AKTi VIII 250 nM added Day 0 during activation, UACC257-RFP, E:T=3:1, n=3 patients, vs Panobinostat and controls, FIG. 21A, listed as AKTi): better tumor-killing activity
- Response to Ag exposure (cytokine expression, exhaustion) [6]: +/=

Compound: O=C(CCCCCCNC(=O)c1cnc(N(c2ccccc2)c2ccccc2Cl)nc1)NO [ACY-241]
- CD28+CD62L+ cells (Tcm-like cells) ([4]; 100 nM): more CD28+CD62L+ cells; also recorded: increased
- % Tnaïve cells ([4]; 100 nM): most % Tnaïve cells; also recorded: most naïve cells
- TemRA cells ([4]; 100 nM): least TemRA cells

Compound: Cc1nc(Nc2ncc(C(=O)Nc3c(C)cccc3Cl)s2)cc(N2CCN(CCO)CC2)n1 [Dasatinib, dasatinib]
- % 2B4+, % Cd69+, and % TIM-3+ cells in T cell products ([1]; dasatinib (10 nM) on Day 2 or Day 5, vs Panobinostat or AKTi VIII or untreated control, FIG. 27A): decreased
- MFI of 4-1BB and TIM-3 in T cell products ([1]; dasatinib (10 nM) on Day 2 or Day 5, vs Panobinostat or AKTi VIII or untreated control, FIG. 27B): decreased
- % of T cell products with differentiated CD39+ state (CD39+) [1, 8]: slightly higher
- % of T cell products with memory-progenitor CD39− negative stem-like phenotype (CD39−CD69−) [1, 8]: slightly less
- % of terminally differentiated CD39-positive state (CD39+CD69+) and % of CD69+ state ([1]; dasatinib, FIG. 23C): little effect
- Manufacturing metrics (expansion, viability, yield) ([2]; Acceptable range ≥Control, Table 5 summary grade): =
- fold expansion of T cell products ([2]; dasatinib added Day 2 (5 nM) and Day 5 (10 nM) during feeding and expansion, FIG. 24A): little effect
- fold expansion of T cell products ([2]; dasatinib on Day 2 (10 nM or 100 nM) or Day 5 (10 nM or 100 nM), FIG. 22A): little effect
- % CD8+ TCR+ T cells (transduction efficiency) ([3]; dasatinib added Day 2 (5 nM) and Day 5 (10 nM) during feeding and expansion, FIG. 24B): higher
- total number of T cell products with CD8+ TCR+ T cells ([3]; dasatinib added Day 2 (5 nM) and Day 5 (10 nM) during feeding and expansion, FIG. 24C): little effect
- % CD8+ TCR+ T cells (transduction efficiency) ([3]; dasatinib on Day 2 (10 nM or 100 nM) or Day 5 (10 nM or 100 nM), FIG. 22B): higher
- total number of T cell products with CD8+ TCR+ T cells ([3]; expansion in the presence of dasatinib, FIG. 22C): little effect
- phenotype ([4]; Dasatinib-treated cells vs untreated cells): Better Phenotype
- Ranking of T cell products from the most Tnaive and the least TemRA to the least Tnaive and the most TemRA [4]: dasatinib (5 nM) on Day 2 >dasatinib (10 nM) on Day 5 >AKTi VIII >Panobinostat
- % TemRA in T cell products [4, 9]: less
- % Tnaive in T cell products [4, 9]: more
- expression of CD27 ([4]; dasatinib (10 nM) on Day 2 or Day 5, FIG. 23A): Little effect
- % Tnaive in T cell products [4, 10]: less
- % of differentiated TemRA [4, 10]: less
- % CD62L+ and % CD28+CD62L+ cells in T cell products ([4]; dasatinib (10 nM) on Day 2 or Day 5, vs Panobinostat, SAHA+IL-21, AKTi VIII or untreated control, FIG. 26A): increased
- MFI of CD27 and CD62L in T cell products ([4]; dasatinib (10 nM) on Day 2 or Day 5, vs Panobinostat, SAHA+IL-21, AKTi VIII or untreated control, FIG. 26B): increased
- expression of Tnaive and Tcm markers CD28 and CD62L ([4]; dasatinib (10 nM) on Day 2 or Day 5, vs untreated control, FIG. 23A): increased
- % TemRA in T cell products [4, 11]: decreased
- % Tnaive in T cell products [4, 11]: increased
- number of Tnaive in T cell products ([4]; dasatinib added Day 2 (5 nM) and Day 5 (10 nM) during feeding and expansion, vs untreated control, FIG. 25B): increased
- tumor killing activity ([5]; expansion in the presence of dasatinib, TCR normalized T cells:UACC257-RFP=3:1, n=3 healthy donors, vs Panobinostat or AKTi VIII and controls, FIG. 28A, 29A-C): significantly better tumor killing activity

Compound: Nc1ccccc1NC(=O)c1ccc(CNC(=O)OCc2cccnc2)cc1 [Entinostat, entinostat]
- fold expansion ([2]; 2 (unit uncertain)): reduced fold expansion
- % CD8+ T cells ([3]; 2 (unit uncertain)): reduced % CD8+ T cells
- % CD8+ TCR+ cells (transduction efficiency) ([3]; 2 (unit uncertain)): reduced % CD8+ TCR+ cells
- toxicity to T cells [7]: highly toxic
- viability of transduced T cells [7]: reduced T cell viability

Compound: O=C(CCCCCCC(=O)Nc1ccccc1)NO [SAHA, suberanilohydroxamic acid]
- CD28+CD62L+ cells (Tcm-like cells) ([4]; 50 nM): more CD28+CD62L+ cells; also recorded: increased
- % Tnaïve cells ([4]; 50 nM): most % Tnaïve cells; also recorded: most naïve cells
- TemRA cells ([4]; 50 nM): least TemRA cells

Compound: CCCC(=O)[O-].[Na+] [Sodium butyrate]
- fold expansion ([2]; 2 (unit uncertain)): reduced fold expansion
- % CD8+ T cells ([3]; 2 (unit uncertain)): reduced % CD8+ T cells
- % CD8+ TCR+ cells (transduction efficiency) ([3]; 2 (unit uncertain)): reduced % CD8+ TCR+ cells
- viability of transduced T cells [7]: reduced T cell viability
- toxicity to T cells ([7]; summary of Example 2): highly toxic

Compound: CCCC(CCC)C(=O)O [valproic acid]
- fold expansion ([2]; 1.5 (unit uncertain)): reduced fold expansion
- % CD8+ T cells ([3]; 1.5 (unit uncertain)): reduced % CD8+ T cells
- toxicity to T cells [7]: highly toxic
